Laboratory results published in DBAASP.
Converted amounts (≈) assume the structure as drawn. Blank lines part the entries; values can stand above or below the molecule they belong to.

Columns and labels:
Experiment in all cases: ≥ marks a high value that may be exact or a test limit, other limits are often not marked, values filed in µg/mL are converted to µM
[1] = test system: Bacillus subtilis ATCC 6633
[2] = test system: Klebsiella pneumoniae ATCC 27736
[3] = test system: Pseudomonas aeruginosa ATCC BAA-427
[4] = test system: Staphylococcus aureus NCTC 8325
[5] = test system: Candida albicans ATCC 90028
[6] = test system: Escherichia coli ATCC 25922
[7] = test system: Candida albicans ATCC 10231
[8] = test system: Escherichia coli D31
[9] = test system: Pseudomonas aeruginosa ATCC 15442
[10] = test system: Pseudomonas aeruginosa PAO1
[11] = test system: Staphylococcus aureus ATCC 25923
[12] = test system: Staphylococcus aureus ATCC 43300
[13] = test system: Staphylococcus aureus MR
[14] = test system: Streptococcus mutans ATCC 25175
[15] = test system: Pseudomonas aeruginosa H1001
[16] = test system: Escherichia coli BL21
[17] = test system: Escherichia coli MG1655
[18] = test system: Staphylococcus epidermidis
[19] = test system: Streptococcus mutans

SMILES: CC[C@H](C)[C@H](NC(=O)CNC(=O)[C@H](CCCN=C(N)N)NC(=O)[C@H](Cc1ccccc1)NC(=O)[C@@H](NC(=O)[C@H](Cc1cnc[nH]1)NC(=O)[C@H](Cc1cnc[nH]1)NC(=O)[C@H](Cc1ccccc1)NC(=O)[C@@H](N)Cc1ccccc1)[C@@H](C)CC)C(=O)N[C@H](C(=O)N[C@@H](Cc1cnc[nH]1)C(=O)N[C@H](C(=O)NCC(=O)N[C@@H](CCCCN)C(=O)N[C@H](C(=O)N[C@H](C(=O)N[C@@H](Cc1cnc[nH]1)C(=O)N[C@@H](CCCN=C(N)N)C(=O)N[C@@H](CC(C)C)C(=O)N[C@H](C(=O)N[C@H](C(=O)NCC(N)=O)[C@@H](C)O)C(C)C)[C@@H](C)CC)[C@@H](C)O)[C@@H](C)CC)C(C)C [FFHHIFRGIVHIGKTIHRLVTG]
MIC [1]: 6 µM (≈ 15.5 µg/mL) | MIC [2]: 3 µM (≈ 7.76 µg/mL) | MIC [3]: 4 µM (≈ 10.3 µg/mL)

SMILES: CC(C)C[C@H](NC(=O)[C@@H](NC(=O)[C@H](CCCCN)NC(=O)[C@H](CO)NC(=O)[C@H](CC(C)C)NC(=O)[C@H](CC(C)C)NC(=O)[C@H](CO)NC(=O)[C@H](C)NC(=O)[C@H](CC(C)C)NC(=O)[C@H](Cc1ccccc1)NC(=O)[C@@H]1CCCN1C(=O)[C@H](CC(C)C)NC(=O)[C@@H](N)Cc1ccccc1)C(C)C)C(N)=O [FLPFLASLLSKVL]
MIC [4]: ≥ 80 µM

SMILES: CC[C@H](C)[C@@H]1NC(=O)[C@H](C)NC(=O)[C@@H](NC(=O)[C@@H](NC(=O)[C@@H](NC(=O)[C@H](CCCCN)NC(=O)[C@H](C)NC(=O)[C@H](C)NC(=O)[C@H](CCSC)NC(=O)CNC(=O)[C@H](C)NC(=O)[C@@H](NC(=O)[C@@H](NC(=O)[C@@H]2CCCN2C(=O)[C@H](CC(C)C)NC(=O)[C@@H](N)Cc2ccccc2)[C@@H](C)CC)[C@@H](C)CC)C(C)C)[C@@H](C)CC)CSSC[C@@H](C(=O)O)NC(=O)[C@H](CCCCN)NC(=O)[C@H](CCCCN)NC(=O)[C@H]([C@@H](C)O)NC1=O [FLPIIAGMAAKVICAITKKC]
MIC [5]: 13 µM (≈ 27.2 µg/mL) | MIC [6]: 50 µM (≈ 104 µg/mL) | MIC [4]: 6 µM (≈ 12.5 µg/mL)

SMILES: CC[C@H](C)[C@H](NC(=O)[C@H](CCCCN)NC(=O)[C@H](CCCCN)NC(=O)[C@H](Cc1cnc[nH]1)NC(=O)[C@@H](NC(=O)[C@H](CCCN=C(N)N)NC(=O)[C@H](CS)NC(=O)[C@H](CC(C)C)NC(=O)[C@@H](N)CC(C)C)C(C)C)C(=O)N[C@@H](C)C(=O)O [LLCRVHKKIA]
MIC [15]: ≥ 42.4 µM

SMILES: CC[C@H](C)[C@H](NC(=O)[C@H](CCCCN)NC(=O)[C@H](CCCN=C(N)N)NC(=O)[C@H](CCCCN)NC(=O)[C@H](CCCCN)NC(=O)[C@H](CCCCN)NC(=O)[C@H](Cc1c[nH]c2ccccc12)NC(=O)[C@H](CCCCN)NC(=O)[C@H](CC(C)C)NC(=O)[C@H](Cc1c[nH]c2ccccc12)NC(=O)[C@H](CCCN=C(N)N)NC(=O)[C@H](CC(=O)O)NC(=O)[C@H](CCSC)NC(C)=O)C(=O)N[C@@H](CCCN=C(N)N)C(=O)N[C@@H](CCCN=C(N)N)C(=O)N[C@@H](CCCN=C(N)N)C(=O)N[C@@H](CCCN=C(N)N)C(=O)N[C@@H](CCCN=C(N)N)C(=O)N[C@@H](CCCN=C(N)N)C(=O)N[C@@H](CCCN=C(N)N)C(=O)N[C@@H](CCCN=C(N)N)C(=O)N[C@@H](CCCN=C(N)N)C(=O)N[C@@H](CCCN=C(N)N)C(=O)N[C@@H](CCCN=C(N)N)C(N)=O [MDRWLKWKKKRKIRRRRRRRRRRR]
MIC [16]: 6 µM (≈ 21.5 µg/mL) | MIC [17]: 12 µM (≈ 42.9 µg/mL) | MIC [18]: 4 µM (≈ 14.3 µg/mL)

SMILES: C[C@H](NC(=O)[C@H](CO)NC(=O)[C@H](C)NC(=O)[C@H](Cc1ccccc1)NC(=O)[C@H](Cc1c[nH]c2ccccc12)NC(=O)[C@H](Cc1c[nH]c2ccccc12)NC(=O)[C@H](Cc1c[nH]c2ccccc12)NC(=O)[C@H](CCCN=C(N)N)NC(=O)[C@H](CCCN=C(N)N)NC(=O)[C@@H](N)CCCN=C(N)N)C(=O)N[C@@H](CO)C(=O)N[C@@H](C)C(=O)N[C@@H](CCCN=C(N)N)C(=O)N[C@@H](CCCN=C(N)N)C(=O)N[C@@H](CCCN=C(N)N)C(=O)N[C@@H](Cc1c[nH]c2ccccc12)C(=O)N[C@@H](Cc1c[nH]c2ccccc12)C(=O)N[C@@H](Cc1c[nH]c2ccccc12)C(=O)N[C@@H](Cc1ccccc1)C(N)=O [RRRWWWFASASARRRWWWF]
MIC [19]: 11.6 µM (≈ 32 µg/mL)

SMILES: CC[C@H](C)[C@H](NC(=O)[C@H](CCCCN)NC(=O)[C@H](CC(C)C)NC(=O)[C@H](CC(C)C)NC(=O)[C@H](CCC(N)=O)NC(=O)[C@H](CCCCN)NC(=O)[C@@H](N)C(C)C)C(=O)N[C@@H](Cc1ccccc1)C(=O)N[C@@H](CC(N)=O)C(=O)N[C@@H](CCCN=C(N)N)C(=O)N[C@@H](Cc1ccccc1)C(N)=O [VKQLLKIFNRF]
MIC [19]: 31.8 µM (≈ 44.7 µg/mL)

SMILES: CC[C@H](C)[C@H](NC(=O)[C@H](Cc1cnc[nH]1)NC(=O)[C@H](CC(C)C)NC(=O)[C@H](CC(C)C)NC(=O)[C@@H](NC(=O)[C@H](CCCCN)NC(=O)[C@@H](N)C(C)C)[C@@H](C)O)C(=O)N[C@@H](Cc1ccccc1)C(=O)N[C@@H](CCC(N)=O)C(=O)N[C@@H](CCCN=C(N)N)C(=O)N[C@@H](Cc1ccccc1)C(N)=O [VKTLLHIFQRF]
MIC [19]: ≥ 44.6 µM

More lines, now with the values ahead:

MIC [1]: 8 µM (≈ 20.5 µg/mL) | MIC [2]: 6 µM (≈ 15.3 µg/mL) | MIC [3]: 12 µM (≈ 30.7 µg/mL)
SMILES: CC[C@H](C)[C@H](NC(=O)CNC(=O)[C@H](CCCN=C(N)N)NC(=O)[C@H](Cc1ccccc1)NC(=O)[C@@H](NC(=O)[C@H](Cc1cnc[nH]1)NC(=O)[C@H](Cc1cnc[nH]1)NC(=O)[C@H](Cc1ccccc1)NC(=O)[C@@H](N)Cc1ccccc1)C(C)C)C(=O)N[C@H](C(=O)N[C@@H](Cc1cnc[nH]1)C(=O)N[C@H](C(=O)NCC(=O)N[C@@H](CCCCN)C(=O)N[C@H](C(=O)N[C@H](C(=O)N[C@@H](Cc1cnc[nH]1)C(=O)N[C@@H](CCCN=C(N)N)C(=O)N[C@@H](CC(C)C)C(=O)N[C@H](C(=O)N[C@H](C(=O)NCC(N)=O)[C@@H](C)O)C(C)C)[C@@H](C)CC)[C@@H](C)O)C(C)C)C(C)C [FFHHVFRGIVHVGKTIHRLVTG]

MIC [1]: 25 µM (≈ 36.4 µg/mL) | MIC [7]: 50 µM (≈ 72.8 µg/mL) | MIC [6]: 12.5 µM (≈ 18.2 µg/mL) | MIC [8]: ≥ 50 µM | MIC [9]: ≥ 50 µM | MIC [10]: > 100 µM | MIC [11]: 1.6 µM (≈ 2.33 µg/mL) | MIC [12]: 6.2 µM (≈ 9.03 µg/mL) | MIC [13]: 6.2 µM (≈ 9.03 µg/mL) | MIC [14]: 6.2 µM (≈ 9.03 µg/mL)
SMILES: CC[C@H](C)[C@H](NC(=O)[C@H](Cc1cnc[nH]1)NC(=O)[C@H](CCC(N)=O)NC(=O)[C@H](CC(C)C)NC(=O)[C@@H](N)Cc1ccccc1)C(=O)N[C@H](C(=O)NCC(=O)N[C@@H](C)C(=O)N[C@@H](CC(C)C)C(=O)NCC(=O)N[C@@H](CCCCN)C(=O)N[C@@H](CC(C)C)C(=O)N[C@@H](Cc1ccccc1)C(N)=O)[C@@H](C)CC [FLQHIIGALGKLF]

MIC [15]: 10.1 µM (≈ 12.5 µg/mL)
SMILES: CC[C@H](C)[C@H](N)C(=O)N[C@@H](CCCCN)C(=O)N[C@@H](CC(C)C)C(=O)N[C@@H](CC(C)C)C(=O)N[C@@H](CS)C(=O)N[C@@H](CCCN=C(N)N)C(=O)N[C@H](C(=O)N[C@@H](Cc1cnc[nH]1)C(=O)N[C@@H](CCCCN)C(=O)N[C@@H](CCCCN)C(=O)O)C(C)C [IKLLCRVHKK]

MIC [15]: ≥ 87.5 µM
SMILES: NCCCC[C@H](NC(=O)[C@H](Cc1c[nH]c2ccccc12)NC(=O)[C@H](Cc1c[nH]c2ccccc12)NC(=O)[C@@H]1CCCN1C(=O)[C@H](Cc1c[nH]c2ccccc12)NC(=O)[C@@H](N)CCCCN)C(=O)N[C@@H](Cc1c[nH]c2ccccc12)C(=O)N[C@@H](CCCN=C(N)N)C(=O)N[C@@H](CCCN=C(N)N)C(N)=O [KWPWWKWRR]

MIC [15]: 0.0872 µM (≈ 0.21 µg/mL)
SMILES: CC[C@H](C)[C@H](NC(=O)[C@H](CCCN=C(N)N)NC(=O)[C@H](CCCN=C(N)N)NC(=O)[C@@H]1CCCN1C(=O)CNC(=O)[C@H](CCCN=C(N)N)NC(=O)[C@@H]1CCCN1C(=O)[C@H](CCCN=C(N)N)NC(=O)[C@@H]1CCCN1C(=O)[C@H](CC(C)C)NC(=O)[C@H](Cc1ccc(O)cc1)NC(=O)[C@@H]1CCCN1C(=O)[C@@H]1CCCN1C(=O)[C@H](CCCCN)NC(=O)[C@H](CC(=O)O)NC(=O)[C@@H](N)C(C)C)C(=O)N[C@@H](Cc1ccc(O)cc1)C(=O)N[C@@H](CC(N)=O)C(=O)N[C@@H](CCCN=C(N)N)C(=O)NCC(=O)O [VDKPPYLPRPRGPRRIYNRG]

MIC [15]: 0.123 µM (≈ 0.3 µg/mL)
SMILES: CC[C@H](C)[C@H](NC(=O)[C@H](CCCN=C(N)N)NC(=O)[C@H](CCCN=C(N)N)NC(=O)[C@@H]1CCCN1C(=O)[C@@H]1CCCN1C(=O)[C@H](CCCN=C(N)N)NC(=O)[C@@H]1CCCN1C(=O)[C@H](CCCN=C(N)N)NC(=O)[C@@H]1CCCN1C(=O)[C@H](CC(C)C)NC(=O)[C@H](Cc1ccc(O)cc1)NC(=O)[C@@H]1CCCN1C(=O)[C@@H]1CCCN1C(=O)[C@H](CCCCN)NC(=O)[C@H](CC(=O)O)NC(=O)[C@@H](N)C(C)C)C(=O)N[C@@H](Cc1ccc(O)cc1)C(=O)N[C@@H](CC(N)=O)C(=O)N[C@@H](Cc1cnc[nH]1)C(=O)NCC(=O)O [VDKPPYLPRPRPPRRIYNHG]
